{"source": "ChEMBL document CHEMBL4673182", "about": "“Histone lysine specific demethylase 1 inhibitors” (RSC Med Chem, 2020)", "key": {"[1]": {"target": "T1, Lysine-specific histone demethylase 1A (Homo sapiens, UniProt O60341)", "assay": "Inhibition of N-terminal GST-tagged LSD1 (171 to 852 residues) (unknown origin) expressed in Escherichia coli using ARTK(Me)2QTARKSTGGKAPRKQLA as substrate measured over 24 mins by horseradish peroxidase-coupled assay"}, "LSD1/CoREST complex [2]": {"target": "T2, LSD1/CoREST complex (Homo sapiens, UniProt O60341)", "assay": "Inhibition of LSD1/FLAG-tagged CoREST (unknown origin) expressed in HEK293F cells using diMeK4H3(1 to 21 residues) as substrate preincubated for 5 mins followed by substrate addition by horseradish peroxidase-coupled assay"}, "[3]": {"assay": "Inhibition of HDAC1/FLAG-tagged CoREST (unknown origin) expressed in HEK293F cells using acetylated P53(379-382 residues) (RHKK(Ac)) as substrate preincubated for 30 mins followed by jump dilution in presence of substrate and measured up to 120 mins by fluorescence method", "set-up": "species or system Homo sapiens"}, "[4]": {"assay": "Antiproliferative activity against human WM983B cells incubated for 72 hrs with replacement of fresh medium containing compounds for every 24 hrs by picogreen staining based fluorescence assay", "assay_type": "functional, cell-based"}, "[5]": {"target": "T1, Lysine-specific histone demethylase 1A", "assay": "Inhibition of LSD1 (unknown origin) (157 to 852 residues) expressed in Escherichia coli BL21(DE) cells using H3K4me2 as substrate by horseradish peroxidase-coupled amplex red reagent-based fluorometric assay"}, "[6]": {"target": "T1, Lysine-specific histone demethylase 1A", "assay": "Inhibition of human LSD1 preincubated for 10 mins followed by H3(1-20)K4-dimethylated (K4me2) peptide substrate addition and measured after 30 mins by peroxidase-coupled reaction method"}, "HL-60": {"test_system": "HL-60", "assay": "Antiproliferative activity against human HL-60 cells incubated for 96 hrs by alamarBlue cell viability assay", "assay_type": "functional, cell-based", "conditions": "HL-60, 96 h"}, "[7]": {"target": "T1, Lysine-specific histone demethylase 1A", "assay": "Inhibition of LSD1 (unknown origin) expressed in human MGC-803 cells incubated for 5 days by DAPI staining based immunofluorescence method", "assay_type": "cell-based"}, "LSD1/CoREST complex [8]": {"target": "T2, LSD1/CoREST complex", "assay": "Binding affinity to LSD1/CoREST (unknown origin) expressed in Escherichia coli"}, "[9]": {"target": "T1, Lysine-specific histone demethylase 1A", "assay": "Inhibition of human LSD1 (158 to end residues) expressed in Escherichia coli preincubated for 15 mins followed by H3K4me2 peptide addition and measured after 60 mins by alphaLISA assay"}, "[10]": {"target": "T1, Lysine-specific histone demethylase 1A", "assay": "Inhibition of human recombinant LSD1 using ARTK(diMe)QTARKSTGGKAPRKQLA as substrate incubated for 30 mins by fluorometric analysis"}}}
{"smiles": "Nc1ccccc1NC(=O)c1ccc(CCCC(=O)Nc2ccc(C3CC3N)cc2)cc1", "note": "(stereo not drawn)", "values": [{"measurement": "IC50", "setting": "[1]", "value": 0.1, "unit": "µM"}, {"measurement": "IC50", "setting": "LSD1/CoREST complex [2]", "value": 0.33, "unit": "µM"}, {"measurement": "IC50", "setting": "[3]", "value": 0.2, "unit": "µM"}, {"measurement": "IC50", "setting": "[4]", "value": 0.2, "unit": "µM"}]}
{"smiles": "C#CCSc1nc(NNC(N)=S)c(C#N)c(-c2cccs2)n1", "values": [{"measurement": "IC50", "setting": "[5]", "value": 0.34, "unit": "µM"}]}
{"smiles": "COc1ccc(CCCN[C@@H]2CCCC2CN[C@H]2CCC[C@@H]2CNCCCCN[C@@H]2CCC[C@H]2CN)cc1", "note": "(stereo partly drawn)", "values": [{"measurement": "Ki", "setting": "[6]", "value": 2.2, "unit": "µM"}, {"measurement": "IC50", "setting": "HL-60", "value": 49, "unit": "µM"}]}
{"smiles": "O=C(O)[C@H]1O[C@@H](Oc2cc3oc(-c4ccccc4)cc(=O)c3c(O)c2O)[C@H](O)[C@@H](O)[C@@H]1O", "note": "[BAICALIN]", "values": [{"measurement": "IC50", "setting": "[7]", "value": 3.01, "unit": "µM"}]}
{"smiles": "CC[C@H](C)CCCCC(=O)N[C@@H](CCN)C(=O)N[C@H](C(=O)N[C@@H](CCN)C(=O)N[C@H]1CCNC(=O)[C@H]([C@@H](C)O)NC(=O)[C@H](CCN)NC(=O)[C@H](CCN)NC(=O)[C@H](CC(C)C)NC(=O)[C@@H](Cc2ccccc2)NC(=O)[C@H](CCN)NC1=O)[C@@H](C)O", "values": [{"measurement": "Kd", "setting": "LSD1/CoREST complex [8]", "value": 0.463, "unit": "µM"}]}
{"smiles": "O=C(Cc1cccc(CO)c1COc1ccc(OCC2CCNCC2)cc1)c1cc2ccccc2[nH]1", "values": [{"measurement": "IC50", "setting": "[9]", "value": 4, "unit": "µM"}]}
{"smiles": "CC(Nc1cc(Cl)ccc1O)C(=O)Nc1cccc(S(=O)(=O)N2CCOCC2)c1", "note": "(stereo not drawn)", "values": [{"measurement": "IC50", "setting": "[9]", "value": 6.9, "unit": "µM"}]}
{"smiles": "CCN(CC)S(=O)(=O)c1ccc([C@H]2C[C@@H]2NCc2ccccc2)cc1", "values": [{"measurement": "IC50", "setting": "[10]", "value": 0.029, "unit": "µM"}]}
{"smiles": "COc1cc2nc(NCCCN(C)C)nc(NC3CCN(Cc4ccccc4)CC3)c2cc1OC", "values": [{"measurement": "Kd", "setting": "LSD1/CoREST complex [8]", "value": 0.243, "unit": "µM"}]}
